One experiment has as its target T1, CYP1A2 (Rattus norvegicus, UniProt P04799).
T1 construct: native full-length enzyme in rat liver microsomes
T1 sequence (P04799 2-513): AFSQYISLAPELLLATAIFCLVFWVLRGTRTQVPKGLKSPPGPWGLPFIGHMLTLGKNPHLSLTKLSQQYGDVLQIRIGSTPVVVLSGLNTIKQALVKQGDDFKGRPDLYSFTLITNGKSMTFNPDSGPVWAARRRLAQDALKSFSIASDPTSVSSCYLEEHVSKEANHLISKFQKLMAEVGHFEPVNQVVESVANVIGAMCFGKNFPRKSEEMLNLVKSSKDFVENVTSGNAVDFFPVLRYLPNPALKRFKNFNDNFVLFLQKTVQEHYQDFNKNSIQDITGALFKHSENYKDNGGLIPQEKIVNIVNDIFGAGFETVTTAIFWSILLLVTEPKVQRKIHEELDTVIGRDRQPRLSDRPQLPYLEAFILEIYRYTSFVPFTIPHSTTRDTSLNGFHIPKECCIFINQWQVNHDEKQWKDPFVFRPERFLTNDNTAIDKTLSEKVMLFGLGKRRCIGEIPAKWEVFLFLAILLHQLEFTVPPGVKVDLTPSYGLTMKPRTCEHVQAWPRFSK
In words: CYP probe substrate depletion in rat liver microsomes, HPLC. Particulars: typical CYP1A2 substrate (not named); 0-100 μM inhibitor. In kind it is biochemical.

The subject of another experiment is T2, CYP2C9.
T2 construct: gene Cyp2c11; native enzyme activity in rat liver microsomes
The description is as above. Type of experiment: biochemical. Particulars: typical CYP2C9 substrate (not named); 0-100 μM inhibitor.

In paper PMC8583760, “Pharmacokinetic interaction between rhynchopylline and pellodendrine via CYP450 enzymes and P-gp” (Pharmaceutical Biology, 2021) one finds IC50 data, which are given here for 1 molecule.

Each structure is given as a SMILES string. pIC50: −log10 of the molar value.

Take `COc1cc2c(cc1O)C[C@H]1c3cc(O)c(OC)cc3CC[N@@+]1(C)C2` [pellodendrine]: the pIC50 (as a rule, the negative decadic logarithm of the IC50, by convention in mol/L) was 4.64 against CYP1A2 and 4.79 with CYP2C9.
